The text below walks through data of patent US20020192161A1, “Animal model for evaluating analgesics” (priority 2001, published 2002).

The conditions of series [1]: cited from earlier work; for area under serum drug concentration AUC0-2h: 200 mg dose; for AUC0-2h: 600 mg dose.
A short description of series [2]: Bioavailability of oral ibuprofen crushed tablets in control rats. Type of series: in vivo, Sprague-Dawley rats. As to the method: (§1) The animal models are Adult male Sprague-Dawley rats with body weight of 250-300 g, and which were cared for in accordance with the principles and guidelines of the Canadian Council of Animal Care. All rats were catheterized in the right jugular vein for sample collection.
(§2) The tablets were crushed gently and small pieces were administered into the stomach via a plastic tube followed by 0.5 mL tap water. […] They had free access to water.

For series [3] the following is noted: cited from earlier work.
Series [4] can be described thus: Bioavailability of oral ibuprofen formulations in vagal-suppressed (propantheline-treated, Pain Model) rats. Type of series: in vivo. The settings on record: male, Sprague-Dawley, rat, plasma, 20 mg/kg. As to the method: as §1
An animal model having suppressed vagal properties were produced by administering (intraperitoneal injection) to the rats two 20 mg/kg doses of propantheline (test, n=6), an anticholinergic agent with known vagal suppressive properties, the first dose at 2 hours prior to administration of an NSAID, and the second at 1 hour prior.
as §2

The mark [5] stands for this setting: male, Sprague-Dawley, rat, plasma, po, 20 mg/kg.

Like-named read-outs stand apart in the source and are kept apart here.

For the compound `CC(C)Cc1ccc([C@@H](C)C(=O)O)cc1` [R-ibuprofen, R(−)-2-(4-isobutylphenyl)propionic acid], in series [1] (before dental extraction), the “area under serum drug concentration AUC0-2h” value is listed as 5.5 mg/L^−1/h and the AUC0-2h is 14400 ng·h/mL. In addition, the AUC0-2h in series [1] (after dental extraction) is 5800 ng·h/mL.

In the case of `CC(C)Cc1ccc(C(C)C(=O)O)cc1` (racemic) [ibuprofen, (±)-2-(4-Isobutylphenyl)propionic acid], the “AUC (0-8)” value in series [2] (control rats, 20 mg/kg ibuprofen oral as crushed tablets) is listed as 139 μg/h/mL^−1. Also, in series [2] (setting [5]), the Cmax (in general, the maximum level reached in the sampled fluid or tissue) was found to be 40400 ng/mL and the time of peak concentration (Tmax) (in general, the time at which the peak concentration occurs) was 16.8 min. The solubility in water entry in series [3] is “less than 1 part of drug in 10,000 parts o”. In addition, in series [4], the Cmax turned out to be 13800 ng/mL and the time to peak (Tmax) was determined as 45 min. Moreover, in series [1] (200 mg and 600 mg doses, dental surgery), the “delay in the mean time to peak concentration caused by surgery” value was “two”.

As to `CC(C)Cc1ccc([C@H](C)C(=O)O)cc1` [S-ibuprofen, S(+)-2-(4-isobutylphenyl)propionic acid], in series [1] (before dental extraction), the “area under serum drug concentration AUC0-2h” value is recorded as 5.6 mg/L^−1/h and the AUC0-2h is 14200 ng·h/mL. In addition, in series [1] (after dental extraction), the AUC0-2h is 7200 ng·h/mL.
